Results on 17 compounds are retold here after BindingDB's records for doi:10.1021/jm00088a003 (Merck Research Laboratories, 1992).

For orientation: IC50 means the midpoint of a concentration-inhibition curve. Higher therefore signals lower potency.

In this assay the target is T1, Dimer of Gag-Pol polyprotein [489-587] (Human immunodeficiency virus 1, UniProt P12497).
T1 construct: 489-587
Description: Protease Inhibition Assay. As to conditions: pH 5.5; 30 °C. On the procedure: Sensitivity of HIV-1 protease activity to protease inhibitors was determined by a peptide substrate cleavage assay. Protease products were analyzed on a reverse-phase high-pressure liquid chromatograph.

Turning to `CC(C)(C)OC(=O)N[C@@H](Cc1ccccc1)[C@@H](O)C[C@@H](Cc1ccc(OCC(=O)O)cc1)C(=O)N[C@H]1c2ccccc2C[C@H]1O` [2-{4-[(2R)-2-[(2S,3S)-3-{[(tert-butoxy)carbonyl]amino}-2-hydroxy-4-phenylbutyl]-2-{[(1S,2R)-2-hydroxy-2,3-dihydro-1H-inden-1-yl]carbamoyl}ethyl]phenoxy}acetic acid], the IC50 is 0.04 nM.

With `CC(C)(C)OC(=O)N[C@@H](Cc1ccccc1)[C@@H](O)C[C@@H](Cc1ccc(OCC[N+]2(O)CCOCC2)cc1)C(=O)N[C@H]1c2ccccc2C[C@H]1O` [4-(2-{4-[(2R)-2-[(2S,3S)-3-{[(tert-butoxy)carbonyl]amino}-2-hydroxy-4-phenylbutyl]-2-{[(1S,2R)-2-hydroxy-2,3-dihydro-1H-inden-1-yl]carbamoyl}ethyl]phenoxy}ethyl)-4-hydroxymorpholin-4-ium], the IC50 turned out to be 0.2 nM.

The compound `CC(C)(C)OC(=O)N[C@@H](Cc1ccccc1)[C@@H](O)C[C@@H](Cc1ccc(OCc2ccccc2)cc1)C(=O)N[C@H]1c2ccccc2C[C@H]1O` [N-(2(R)-Hydroxy-1(S)-indany1)-5(S)-[(tert-butyloxycarbonyl)amino]-4(S)-hydroxy-6-phenyl-2(R)-[[4-(benzyloxy)phenyl]methyl]hexanamide] registered an IC50 of 0.18 nM.

As for `CC(C)(C)OC(=O)N[C@@H](Cc1ccc(O)cc1)[C@@H](O)C[C@@H](Cc1ccccc1)C(=O)N[C@H]1c2ccccc2C[C@H]1O` [N-(2(R)-Hydroxy-1(S)-indanyl)-5(S)-[(tert-butyloxycarbonyl)amino]-4(S)-hydroxy-6-(4-hydroxyphenyl)-2-(R)-(phenylmethyl)hexanamide], the midpoint of inhibition, the IC50, lay at 0.35 nM.

In the case of `CC(C)(C)OC(=O)N[C@@H](Cc1ccc(O)cc1)[C@@H](O)C[C@@H](Cc1ccc(O)cc1)C(=O)N[C@H]1c2ccccc2C[C@H]1O` [N-(2(R)-Hydroxy-1(S)-indanyl)-5(S)-[(tert-butyloxycarbonyl)amino]-4(S)-hydroxy-6-(4-hydroxyphenyl)-2-(R)-[(4-hydroxyphenyl)methyl]hexanamide], 0.15 nM corresponded to half-maximal inhibition (IC50).

In the case of `CC(C)(C)OC(=O)N[C@@H](Cc1ccccc1)[C@@H](O)C[C@@H](Cc1ccc(OCCN2CCS(=O)(=O)CC2)cc1)C(=O)N[C@H]1c2ccccc2C[C@H]1O` [N-(2(R)-Hydroxy-1(S)-indanyl)-5(S)-[(tert-butyloxycarbonyl)amino]-4(S)-hydroxy-6-phenyl-2(R)-[[4-[2-(1,1-dioxythiamorpholin-4-yl)ethoxy]phenyl]methyl]hexanamide], the IC50 was determined as 0.08 nM.

For `CC(C)(C)OC(=O)N[C@@H](Cc1ccccc1)[C@@H](O)C[C@@H](Cc1ccc(OCCN2CCSCC2)cc1)C(=O)N[C@H]1c2ccccc2C[C@H]1O` [N-(2(R)-Hydroxy-1(S)-indanyl)-5(S)-[(tert-butyloxycarbonyl)amino]-4(S)-hydroxy-6-phenyl-2(R)-[[4-[2-(thiamorpholin-4-yl)ethoxy]phenyl]methyl]hexanamide], the IC50 came out at 0.47 nM.

In the case of `COCCN(CCOC)CCOc1ccc(C[C@H](C[C@H](O)[C@H](Cc2ccccc2)NC(=O)OC(C)(C)C)C(=O)N[C@H]2c3ccccc3C[C@H]2O)cc1` [N-(2(R)-Hydroxy-1(S)-indanyl)-5(S)-[(tert-butyloxycarbonyl)amino]-4(S)-hydroxy-6-phenyl-2(R)-[[4-[2-[N,N-bis(2-methoxyethyl)amino]ethoxy]phenyl]methyl]hexanamide], half-maximal inhibition (IC50) required 0.9 nM.

`CC(C)(C)OC(=O)N[C@@H](Cc1ccccc1)[C@@H](O)C[C@@H](Cc1ccc(OCCN2CCCCC2)cc1)C(=O)N[C@H]1c2ccccc2C[C@H]1O` [tert-butyl N-[(2S,3S,5R)-3-hydroxy-5-{[(1S,2R)-2-hydroxy-2,3-dihydro-1H-inden-1-yl]carbamoyl}-1-phenyl-5-({4-[2-(piperidin-1-yl)ethoxy]phenyl}methyl)pentan-2-yl]carbamate]: the IC50 amounted to 1.6 nM.

With `CC(C)(C)OC(=O)N[C@@H](Cc1ccccc1)[C@@H](O)C[C@@H](Cc1ccc(OCCN2CCCC2)cc1)C(=O)N[C@H]1c2ccccc2C[C@H]1O` [tert-butyl N-[(2S,3S,5R)-3-hydroxy-5-{[(1S,2R)-2-hydroxy-2,3-dihydro-1H-inden-1-yl]carbamoyl}-1-phenyl-5-({4-[2-(pyrrolidin-1-yl)ethoxy]phenyl}methyl)pentan-2-yl]carbamate], the IC50 was found to be 1.8 nM.

Turning to `CC(C)(C)OC(=O)N[C@@H](Cc1ccc(OCCN2CCOCC2)cc1)[C@@H](O)C[C@@H](Cc1ccc(OCCN2CCOCC2)cc1)C(=O)N[C@H]1c2ccccc2C[C@H]1O` [tert-butyl N-[(2S,3S,5R)-3-hydroxy-5-{[(1S,2R)-2-hydroxy-2,3-dihydro-1H-inden-1-yl]carbamoyl}-1-{4-[2-(morpholin-4-yl)ethoxy]phenyl}-5-({4-[2-(morpholin-4-yl)ethoxy]phenyl}methyl)pentan-2-yl]carbamate], the half-maximal inhibitory concentration (IC50) was found to be 1.9 nM.

Regarding `CC(C)(C)OC(=O)N[C@@H](Cc1ccccc1)[C@@H](O)C[C@@H](Cc1ccc(OCCN2CC[S+]([O-])CC2)cc1)C(=O)N[C@H]1c2ccccc2C[C@H]1O` [tert-butyl N-[(2S,3S,5R)-3-hydroxy-5-{[(1S,2R)-2-hydroxy-2,3-dihydro-1H-inden-1-yl]carbamoyl}-5-({4-[2-(1-oxo-1,4-thiomorpholin-4-yl)ethoxy]phenyl}methyl)-1-phenylpentan-2-yl]carbamate], the midpoint of inhibition, the IC50, lay at 0.07 nM.

Compound `CN1CCN(CCOc2ccc(C[C@H](C[C@H](O)[C@H](Cc3ccccc3)NC(=O)OC(C)(C)C)C(=O)N[C@H]3c4ccccc4C[C@H]3O)cc2)CC1` [tert-butyl N-[(2S,3S,5R)-3-hydroxy-5-{[(1S,2R)-2-hydroxy-2,3-dihydro-1H-inden-1-yl]carbamoyl}-5-({4-[2-(4-methylpiperazin-1-yl)ethoxy]phenyl}methyl)-1-phenylpentan-2-yl]carbamate] gave an IC50 of 0.2 nM.

As to `CC(C)(C)OC(=O)N[C@@H](Cc1ccccc1)[C@@H](O)C[C@@H](Cc1ccc(OCC(=O)N2CCOCC2)cc1)C(=O)N[C@H]1c2ccccc2C[C@H]1O` [tert-butyl N-[(2S,3S,5R)-3-hydroxy-5-{[(1S,2R)-2-hydroxy-2,3-dihydro-1H-inden-1-yl]carbamoyl}-5-({4-[2-(morpholin-4-yl)-2-oxoethoxy]phenyl}methyl)-1-phenylpentan-2-yl]carbamate], half-maximal inhibition (IC50) was put at 0.2 nM.

`CC(C)(C)OC(=O)N[C@@H](Cc1ccccc1)[C@@H](O)C[C@@H](Cc1ccc(OCCO)cc1)C(=O)N[C@H]1c2ccccc2C[C@H]1O` [tert-butyl N-[(2S,3S,5R)-3-hydroxy-5-{[(1S,2R)-2-hydroxy-2,3-dihydro-1H-inden-1-yl]carbamoyl}-5-{[4-(2-hydroxyethoxy)phenyl]methyl}-1-phenylpentan-2-yl]carbamate]: the IC50 is 0.09 nM.

The compound `CN(C)CCOc1ccc(C[C@H](C[C@H](O)[C@H](Cc2ccccc2)NC(=O)OC(C)(C)C)C(=O)N[C@H]2c3ccccc3C[C@H]2O)cc1` [tert-butyl N-[(2S,3S,5R)-5-({4-[2-(dimethylamino)ethoxy]phenyl}methyl)-3-hydroxy-5-{[(1S,2R)-2-hydroxy-2,3-dihydro-1H-inden-1-yl]carbamoyl}-1-phenylpentan-2-yl]carbamate] displayed an IC50 of 2.1 nM.

The compound `CC(C)(C)OC(=O)N[C@@H](Cc1ccc(OCCN2CCOCC2)cc1)[C@@H](O)C[C@@H](Cc1ccccc1)C(=O)N[C@H]1c2ccccc2C[C@H]1O` [tert-butyl N-[(2S,3S,5R)-5-benzyl-3-hydroxy-5-{[(1S,2R)-2-hydroxy-2,3-dihydro-1H-inden-1-yl]carbamoyl}-1-{4-[2-(morpholin-4-yl)ethoxy]phenyl}pentan-2-yl]carbamate] registered an IC50 of 0.55 nM.
